Assay results from patent US7648976B2, “17-allylamino-17-demethoxygeldanamycin polymorphs and formulations” (Bristol-Myers Squibb Company, priority 2005, dated 2010).
“Also recorded” adds a separate entry of the source.

Legend:
[1] = Effect of 17-AAG starting polymorph on formulation properties; assay type: physicochemical; conditions: non-sterile formulation made by procedure of Example 7 from the named polymorph
Procedure: Particle size distribution was determined by dynamic light scattering with a Nanotract 250 particle size analyzer (Microtrac Inc., Montgomeryville, Pa.). The Nanotrac 250 settings were configured for measuring the PSD (volume distribution) of “Irregular” Shaped particles of “Absorbing” Transparency in a fluid with characteristics of water (Refractive Index: 1.333, Viscosity at 20° C.: […], Viscosity at 30° C.: 1.002 cP). A background signal was measured using 5% Dextrose for Injection (D5W). Then, the nanoparticle formulation was diluted 10 to 20-fold into D5W and mixed well. The PSD of the diluted sample was measured as the average of five replicate 5-minute analyses and reported in histogram format as a function of particle size. While the PSD reflects the range and frequency of particle sizes, other characteristics of the PSD were used for quantitation. The D50 is the volume percentile corresponding to the particle size larger than 50% of the total particle volume (i.e. the median particle size). The D90 is the volume percentile corresponding to the particle size larger than 90% of the total particle volume and is a measure of the largest particles in the dispersion. The particle size distribution measured by dynamic light scattering techniques was supplemented with SEM images, acquired by techniques established in the art. The particle sizes determined via the SEM images were in general agreement with those determined by light scattering.
17-AAG (purified Polymorph C, 1.25 g) was mixed with WFI (3.62 g) and a solution of polysorbate 80 (2.5 g of a 10 weight % solution in WFI), an aqueous suspension of soybean phosphatidylcholine (0.63 g of a 10 weight % suspension in WFI), and a solution of sucrose (10 g of a 25 weight % solution in WFI). The mixture was loaded into the reservoir of a Microfluidics Model 110S microfluidizer containing 7 g WFI set up as described in the previous example and processed under the same conditions. This procedure yielded a formulation having a 17-AAG concentration of approximately 50 mg/mL in an aqueous medium having approximately 1.0 weight % polysorbate 80, 0.25 weight % soy phosphatidylcholine, and 10 weight % sucrose, with a 17-AAG particle size distribution of below 1 micron with median particle size of 300 nm volume distribution.
Non-sterile formulations of 17-AAG were made with other polymorphs using the procedure of Example 7 and compared against formulations made with purified Polymorph C.

[2] = Polymorph stability to heat and humidity (VT-XRPD, DSC); assay type: physicochemical; conditions: for polymorph conversion upon heating: VT-XRPD and/or DSC
Source text: 17-AAG is polymorphic and exists in multiple forms, many of which are solvates. We have generated many polymorphs using a variety of solvents and crystallization conditions. The polymorphs were characterized by techniques such as XRPD, DSC, infrared spectroscopy, gravimetric vapor sorption (GVS), ^1H-NMR, polarized light microscopy (PLM), and thermogravimetric analysis (TGA). We grouped the polymorphs according to similarities in XRPD data, with summary descriptions provided below. Polymorphs that are solvated are referred to by group and solvate names, as in “Polymorph A (DMF solvate)” or “the DMF solvate of Polymorph A”. • Group A The N,N-dimethylformamide (DMF), ethyl acetate (EtOAc), and methyl isobutyl ketone (MIBK) solvates of Polymorph A all have XRPD peaks at about 5.6, 7.0, 9.2, 11.2, 16.4, and 17.9 degrees 2θ (the first four being its lowest angle peaks). […] It has characteristic XRPD peaks at about 6.4, 8.3, 9.6, 13.3, 14.9, 15.7, 19.1, and 20.8 degrees 2θ. […] Typically, this polymorph group is prepared using high boiling solvents. After melting, these polymorphs exist in a molten state until decomposition at about 220° C.

C=CCNC1=C2C[C@@H](C)C[C@H](OC)[C@H](O)[C@@H](C)/C=C(\C)[C@H](OC(N)=O)[C@@H](OC)/C=C\C=C(/C)C(=O)NC(=CC1=O)C2=O [Amorphous, 17-allylamino-17-demethoxygeldanamycin]
Consistency ([1]; listed as Amorphous (1st run)): Paste-like
Remarks ([1]; listed as Amorphous (1st run)): Does not form stable
Consistency ([1]; listed as Amorphous (2nd run)): Paste-like
Remarks ([1]; listed as Amorphous (2nd run)): Does not form stable

C=CCNC1=C2C[C@@H](C)C[C@H](OC)[C@H](O)[C@@H](C)/C=C(\C)[C@H](OC(N)=O)[C@@H](OC)/C=C\C=C(/C)C(=O)NC(=CC1=O)C2=O [Polymorph A, 17-allylamino-17-demethoxygeldanamycin]
polymorph conversion upon heating [2]: converted to the more stable Polymorph C

C=CCNC1=C2C[C@@H](C)C[C@H](OC)[C@H](O)[C@@H](C)/C=C(\C)[C@H](OC(N)=O)[C@@H](OC)/C=C\C=C(/C)C(=O)NC(=CC1=O)C2=O [Polymorph B, 17-allylamino-17-demethoxygeldanamycin]
Consistency ([1]; listed as B (1st run)): Highly viscous
D50 ([1]; listed as B (1st run)): 1.8 μm
Consistency ([1]; listed as B (2nd run)): Highly viscous
D50 ([1]; listed as B (2nd run)): 2.0 μm
polymorph conversion upon heating [2]: converted to Polymorph C

C=CCNC1=C2C[C@@H](C)C[C@H](OC)[C@H](O)[C@@H](C)/C=C(\C)[C@H](OC(N)=O)[C@@H](OC)/C=C\C=C(/C)C(=O)NC(=CC1=O)C2=O [Polymorph C, 17-allylamino-17-demethoxygeldanamycin]
Consistency [1]: Water-like
D50 [1]: 0.28 μm
Remarks [1]: Stable nanoparticle
polymorph conversion upon heating [2]: does not convert to any other polymorph upon heating
relative stability among 17-AAG polymorphs ([2]; moisture/humidity and heat): the most stable to moisture and heat; also recorded: the most stable to heat and humidity

C=CCNC1=C2C[C@@H](C)C[C@H](OC)[C@H](O)[C@@H](C)/C=C(\C)[C@H](OC(N)=O)[C@@H](OC)/C=C\C=C(/C)C(=O)NC(=CC1=O)C2=O [Polymorph D (dichloromethane solvate), 17-allylamino-17-demethoxygeldanamycin]
polymorph conversion upon heating [2]: converts to Polymorph C

C=CCNC1=C2C[C@@H](C)C[C@H](OC)[C@H](O)[C@@H](C)/C=C(\C)[C@H](OC(N)=O)[C@@H](OC)/C=C\C=C(/C)C(=O)NC(=CC1=O)C2=O [Polymorph E, 17-allylamino-17-demethoxygeldanamycin]
polymorph conversion under humidity ([2]; 40° C. and 70% relative humidity (RH)): conversion to Polymorph C is observed

C=CCNC1=C2C[C@@H](C)C[C@H](OC)[C@H](O)[C@@H](C)/C=C(\C)[C@H](OC(N)=O)[C@@H](OC)/C=C\C=C(/C)C(=O)NC(=CC1=O)C2=O [Polymorph G, 17-allylamino-17-demethoxygeldanamycin]
Consistency [1]: Water-like
D50 [1]: 0.36 μm
polymorph conversion upon heating [2]: Heating converts Polymorph G to Polymorph C
